Test results taken from patent publication US10149470B2, “Methods and compositions for vein harvest and autografting” (Vanderbilt University, priority 2009, dated 2018).
Each block holds one compound with its values, some of them ahead of it.

Assays:
Format in all cases: cell-based
human saphenous vein [1] = conditions: 15 min, pH 7.4
Description: De-identified discarded segments of human saphenous vein were collected (n=66), after informed consent approved by the Institutional Review Board of the Vanderbilt University (Nashville, Tenn.), from patients undergoing coronary artery bypass or peripheral vascular bypass surgery. The veins were stored in a saline solution until the end of the surgical procedure at which time they were placed in cold transplant harvest buffer (100 mM potassium lactobionate, 25 mM KH2PO4, 5 mM MgSO4, 30 mM raffinose, 5 mM adenosine, 3 mM glutathione, 1 mM allopurinol, 50 g/L hydroxyethyl starch, pH 7.4) and stored at 4° C. The vessels were tested within 24 hours of harvest. The presense of blue markings were assessed for each HSV. Rings 1.0 mm in width were cut from segments of saphenous vein dissected free of fat and connective tissue, stripped of the endothelium and were suspended in a muscle bath containing a bicarbonate buffer (120 mM NaCl, 4.7 mM KCl, 1.0 mM MgSO4, 1.0 mM NaH2PO4, 10 mM glucose, 1.5 mM CaCl2, and 25 mM […], pH 7.4), gassed with 95% O2/5% CO2 at 37° C. The rings were manually stretched to 4 g of tension, and was maintained at a resting tension of 1 g was obtained and equilibrated for ˜2 hr. […] To determine viability, the rings were contracted with 110 mM KCl (with equimolar replacement of NaCl in bicarbonate buffer), and the force generated was measured. […]

porcine saphenous veins = conditions: pig, 15 min, 50 %
Description: Freshly isolated porcine saphenous veins were used to test the effect of different marking methods. The veins were collected and placed in cold transplant harvest buffer [100 mM potassium lactobionate, 25 mM KH2PO4, 5 mM MgSO4, 30 mM raffinose, 5 mM adenosine, 3 mM glutathione, 1 mM allopurinol, 50 g/L hydroxyethyl starch, pH 7.4]. The vessels were stored in transplant harvest buffer at 4° C. and tested within 24 hours of harvest and. To test the viability, rings 1.0 mm in width were cut from segments of saphenous vein and dissected free of fat and connective tissue. Saphenous vein rings were untreated (Control; n=6), marked with the surgical skin marker (n=3), or 50% isopropyl alcohol (the solvent used in the surgical marker; n=3) and incubated for 15 min at room temperature. The rings were then equilibrated in a muscle bath, contracted with KCl, and force was measured and converted to stress (10^5 N/m^2). […] (FIG. 7).

porcine saphenous vein [2] = assay: Intimal thickening of distended porcine saphenous vein rings in 14 day organ culture; conditions: 50 μM dye, 14 days culture, distended to >300 mm Hg, compared to Distended-Control; FIG. 14
Description: Fresh porcine saphenous vein was harvested by a no touch method under sterile conditions and stored in cold transplant harvest buffer (100 mM potassium lactobionate, 25 mM KH2PO4, 5 mM MgSO4, 30 mM Raffinose, 5 mM Adenosine, 3 mM Glutathione, 1 mM Allopurinol, 50 g/L Hydroxyethyl starch, pH 7.4). The vessels were used within 24 hr of harvest. The veins were divided into three segments that were left untreated (Unmanipulated, n=7), distended (Distended, n=8) to >300 mm Hg, or distended in the presence of the pressure relief valve (Pop Off, n=7). Each segment was then cut into ˜1 mm rings and one ring from each condition was immediately fixed in formalin (Pre-culture). The other rings were cultured in RPMI medium supplemented with 1% L-glutamine, penicillin/streptomycin and 30% Fetal bovine serum at 5% CO2 and 37° C. in the absence (Control) or presence of either 50 μM erioglaucine (FCF), 50 μM brilliant blue G (BBG) or 50 μM Allura Red (Red) for 14 days. After 14 days, the rings were fixed in formalin, sectioned at 5 μm and stained using Verhoff Van Gieson stain. Light micrograph of the rings was captured using a Axiovert 200 and intimal thickness was measured using AxioVision.

porcine saphenous vein [3] = assay: KCl-induced contraction of porcine saphenous vein after stretch injury, with or without dye; conditions: 50 μM dye for 30 min on rings from stretched segments; FIG. 10
Description: Freshly isolated porcine saphenous vein was collected in cold transplant harvest buffer (100 mM potassium lactobionate, 25 mM KH2PO4, 5 mM MgSO4, 30 mM raffinose, 5 mM adenosine, 3 mM glutathione, 1 mM allopurinol, 50 g/L hydroxyethyl starch, pH 7.4). The vessels were tested within 24 hours of harvest and storage in transplant harvest buffer at 4° C. The vein was dissected free of fat and connective tissue and cut into 2 cm long segments. The segments were stretched to twice their resting length (stretched; n=7) or not manipulated (control; n=12). After stretching, the segments from both groups were further divided. A solution of erioglaucine (FCF, 2.6 mM, in 5% propylene glycol and water) or vehicle was then applied with a cotton swab in a longitudinal line to the untreated (FCF; n=8) or the stretched (Stretched+FCF; n=3) vein segments. The segments were incubated at room temperature for 15 min in Plasmalyte and then cut into rings. The rings were suspended in a muscle bath containing a bicarbonate buffer (120 mM NaCl, 4.7 mM KCl, 1.0 mM MgSO4, 1.0 mM NaH2PO4, 10 mM glucose, 1.5 mM CaCl2, and 25 mM […], pH 7.4), bubbled with 95% O2/5% CO2 at 37° C. The rings were manually stretched to 4 g of tension, and maintained at a resting tension of 1 g and equilibrated for ˜2 hr.
Rings from stretched segments were either incubated with 50 μM Allura Red (+Red) or 50 μM of erioglaucine (+FCF) for 30 min. The rings were then allowed to equilibrate in the bicarbonate buffer for before contracting with 110 mM KCl. Force generated was converted to stress (10^5 N/m^2). Data represent relative contractile response to Control rings which was set as 100%.

porcine coronary artery = assay: Papaverine effect on tension and on histamine/KCl contraction of porcine coronary artery rings
Description: Porcine coronary arteries were freshly isolated from euthanized pigs and placed directly into cold transplant harvest buffer (100 mM potassium lactobionate, 25 mM KH2PO4, 5 mM MgSO4, 30 mM Raffinose, 5 mM Adenosine, 3 mM Glutathione, 1 mM Allopurinol, 50 g/L Hydroxyethyl starch, pH 7.4). Coronary arteries were dissected free of fat and adventitial tissues and the endothelium was removed. Transverse rings (1.0 mm thickness) were cut and suspended in muscle bath, via silk 3-0 linked to force transducers (Kent Scientific, CT) interfaced with a Data Translation A-D board (Data Translation, MA). Data was acquired with the Power Lab software program. Porcine coronary artery rings were suspended in a muscle bath and equilibrated in Krebs Ringer bicarbonate buffer for 2 h. The rings were stretched and the length progressively adjusted until maximal tension was obtained. The rings were contracted with 110 mM KCl (with equimolar replacement of NaCl in bicarbonate buffer), and the force generated was measured and converted to stress [Newtons (N)/m^2]=force (g)×0.0987/area, where area is equal to the wet weight [mg/length (mm at maximal length)] divided by 1.055. Rings were washed and equilibrated for another 30 mins. Rings were treated with 5 μM histamine, 110 mM KCl, 1 mM papaverine (PAP), 1 mM papaverine for 10 min followed by 5 μM histamine or 1 mM papaverine for 10 min followed by 110 mM KCl and force generated was measured- and converted to stress. Representative force tracings of rings treated with 5 μM histamine (Hist), 110 mM KCl (KCl), 1 mM papaverine (PAP), 1 mM papaverine for 10 min followed by 5 μM histamine (Pap+Hist) or 1 mM papaverine for 10 min followed by 110 mM KCl (Pap+KCl) were depicted in FIG. 18A. Decrease in stress was converted to a percentage of the maximal initial KCl contraction which was set as 100%.

human saphenous vein [4] = assay: Papaverine effect on tension and on norepinephrine contraction of human saphenous vein rings
Description: De-identified discarded segments of human saphenous vein (n=6) were collected, after informed consent approved by the Institutional Review Board of the Vanderbilt University (Nashville, Tenn.), from patients undergoing coronary artery bypass or peripheral vascular bypass surgery. The veins were stored in a saline solution until the end of the surgical procedure at which time they were placed in cold transplant harvest buffer (100 mM potassium lactobionate, 25 mM KH2PO4, 5 mM MgSO4, 30 mM raffinose, 5 mM adenosine, 3 mM glutathione, 1 mM allopurinol, 50 g/L hydroxyethyl starch, pH 7.4). The vessels were tested within 24 hrs of harvest and storage in transplant harvest buffer at 4° C. Veins were cleaned off fat and adventitial tissues and the endothelium was removed. […] The rings were contracted with 110 mM KCl (with equimolar replacement of NaCl in bicarbonate buffer), and the force generated was measured and converted to stress [Newtons (N)/m^2]==force (g)×0.0987/area, where area is equal to the wet weight [mg/length (mm at maximal length)] divided by 1.055. […] Rings were treated with 0.5 μM norepinephrine (NE), 1 mM papaverine (Pap), or 1 mM papaverine for 10 min followed by 0.5 μM NE and force generated was measured and converted to stress. […]

average stress, contraction with 110 mM KCl (human saphenous vein [1]): 0.005±0.003 10^5 N/m^2
average stress, contraction with KCl (porcine saphenous veins): 5 ± 5 N/m^2
SMILES: CC(C)O [50% isopropyl alcohol, isopropyl alcohol]

SMILES: COc1cc(S(=O)(=O)[O-])c(C)cc1N=Nc1c(O)ccc2cc(S(=O)(=O)[O-])ccc12.[Na+].[Na+] [Allura Red]
distension induced increases in intimal thickening (porcine saphenous vein [2]): but not allura red inhibited distension induced increases in intimal thickening
restoration of functional viability (contractile response to KCl) after stretch injury (porcine saphenous vein [3]): did not restore functional viability

average stress, contraction with 110 mM KCl (human saphenous vein [1]): 0.014±0.01 10^5 N/m^2
SMILES: CN(C)c1ccc2nc3ccc(=[N+](C)C)cc-3sc2c1 [methylene blue]

SMILES: COc1ccc(Cc2nccc3cc(OC)c(OC)cc23)cc1OC [papaverine]
change of basal tension, percentage of the maximal initial KCl contraction (porcine coronary artery; 1 mM papaverine): −15.0±3.135%
histamine induced contraction after papaverine, percentage of the maximal initial KCl contraction (porcine coronary artery; 1 mM papaverine 10 min then 5 μM histamine, histamine alone 98.613±11.049): −12.0±4.163%
KCl induced contraction after papaverine, percentage of the maximal initial KCl contraction (porcine coronary artery; 1 mM papaverine 10 min then 110 mM KCl, KCl alone 103.33±2.404): −20.0±10.00%
histamine and KCl induced contractions (in words) (porcine coronary artery; preincubation with papaverine, FIGS. 18A-B): inhibits histamine and KCl induced contractions
norepinephrine induced contraction after papaverine, percentage of the maximal initial KCl contraction (human saphenous vein [4]; 1 mM papaverine 10 min then 0.5 μM NE, NE alone 89.935±18.344): −3.210±5.119%
norepinephrine induced contractions (in words) (human saphenous vein [4]; preincubation with papaverine, FIGS. 19A-B): inhibits norepinephrine induced contractions
